≈ marks a conversion by molar mass, not a printed value.
Legend:
CaCl2 = experiment: Antifungal sensitivity testing (broth microdilution MIC); type: cell-based; details: 96-well broth microdilution
Procedure, shortened: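 Broth microdilution MIC per a modified published protocol; compounds dissolved in DMSO, fluconazole in water; duplicates in at least two independent experiments. Fungicidal activity checked by spotting MIC-plate cultures onto YPD agar, read after 24 h at 30° C.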

[1] = target: Hsp90 Nuclear Binding Domain (NBD) (Candida albicans (strain SC5314 / ATCC MYA-2876) (Yeast), UniProt P46598); experiment: Surface Plasmon Resonance (SPR) binding, C. albicans Hsp90 NBD; details: biotinylated Hsp90 NBD on streptavidin chip, 25° C., 1:1 binding model
Procedure, shortened: (§1)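 Biacore S200 at 25° C; AviTag-biotinylated recombinant Hsp90 NBD captured on streptavidin chip at 2000-2500 RU. Compound dilution series run in HBS-P pH 7.4 with 2% DMSO at 40 μL/min, 60 s association and 600 s dissociation. Sensorgrams fitted to a 1:1 binding model.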

[2] = target: Hsp90 Nuclear Binding Domain (NBD) (Aspergillus fumigatus, UniProt P40292); experiment: Surface Plasmon Resonance (SPR) binding, A. fumigatus Hsp90 NBD; details: biotinylated Hsp90 NBD on streptavidin chip, 25° C., 1:1 binding model; NB undefined
Procedure, shortened: as §1

HepG2 cells = experiment: Mammalian cell toxicity (Cell Titer-Glo); type: cell-based
Experimental: Mammalian Cell Toxicity. HepG2 cells were seeded overnight at 500 cells/well in 384-well plate, then incubated with compounds (10-point concentration titration) for 48 h. Cell Titer-Glo® reagent ([…]) was added to each well and after 10-minute incubation at room temperature the luminescent signal was measured using an Envision plate reader (Perkin Elmer).

Chain of Hsp90 Nuclear Binding Domain (NBD) (Aspergillus fumigatus, UniProt P40292) (P40292 whole entry, looked up, the tested form may be a part): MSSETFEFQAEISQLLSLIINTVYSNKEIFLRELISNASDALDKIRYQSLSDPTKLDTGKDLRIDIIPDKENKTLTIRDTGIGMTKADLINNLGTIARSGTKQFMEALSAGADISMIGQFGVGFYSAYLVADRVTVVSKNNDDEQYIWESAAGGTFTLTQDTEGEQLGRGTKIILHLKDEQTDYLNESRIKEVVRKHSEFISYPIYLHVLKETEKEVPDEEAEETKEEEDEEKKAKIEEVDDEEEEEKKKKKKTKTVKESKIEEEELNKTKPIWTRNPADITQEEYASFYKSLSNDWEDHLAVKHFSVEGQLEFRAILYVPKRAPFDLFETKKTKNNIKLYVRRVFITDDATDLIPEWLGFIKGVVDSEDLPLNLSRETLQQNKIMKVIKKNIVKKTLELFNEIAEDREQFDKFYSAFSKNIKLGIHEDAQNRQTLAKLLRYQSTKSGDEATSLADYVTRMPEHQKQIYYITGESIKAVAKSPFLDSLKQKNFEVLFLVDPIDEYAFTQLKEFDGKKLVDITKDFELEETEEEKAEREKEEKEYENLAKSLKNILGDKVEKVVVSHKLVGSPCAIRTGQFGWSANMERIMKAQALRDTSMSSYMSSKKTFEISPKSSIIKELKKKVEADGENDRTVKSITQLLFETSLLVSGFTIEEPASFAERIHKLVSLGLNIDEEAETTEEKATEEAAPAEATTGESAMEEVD
Chain of Hsp90 Nuclear Binding Domain (NBD) (Candida albicans (strain SC5314 / ATCC MYA-2876) (Yeast), UniProt P46598) (P46598 1-218 limits assumed): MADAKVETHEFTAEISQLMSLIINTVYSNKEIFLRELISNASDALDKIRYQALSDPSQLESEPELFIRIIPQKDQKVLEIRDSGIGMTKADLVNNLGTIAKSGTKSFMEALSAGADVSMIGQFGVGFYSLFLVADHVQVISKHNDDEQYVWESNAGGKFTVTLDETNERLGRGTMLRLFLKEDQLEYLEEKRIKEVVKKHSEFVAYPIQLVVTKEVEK

Compound	MIC50 (CaCl2; Table 4) [µM]	MIC50 (CaCl2; Table 6) [µM]	Kd [1] [nM]	Kd [2] [nM]	HepG2 MIC50 (HepG2 cells; Table 5, 48 h incubation) [µM]	HepG2 MIC50 (HepG2 cells; Table 6, 48 h incubation) [µM]
Cc1ccc(-n2c(=O)c(N)nc3sc(C(=O)NC4CCN(CC(O)(Cn5cncn5)c5ccc(F)cc5F)CC4)cc32)cc1Oc1ccccc1 (stereo not drawn) [Compound I-12, 3-amino-N-(1-(2-(2,4-difluorophenyl)-2-hydroxy-3-(1H-1,2,4-triazol-1-yl)propyl)piperidin-4-yl)-1-(4-methyl-3-phenoxyphenyl)-2-oxo-1,2-dihydrothieno[2,3-b]pyrazine-6-carboxamide]	0.18 (≈ 0.128 µg/mL)	0.18 (≈ 0.128 µg/mL)	146	431	>10	>10
Nc1nc2sc(CNC3CCN(CC(O)(Cn4ccnc4)c4ccc(F)cc4F)CC3)cc2n(-c2ccc3c(c2)N(c2ccccc2)CCO3)c1=O (stereo not drawn) [Compound I-139, 3-amino-6-(((1-(2-(2,4-difluorophenyl)-2-hydroxy-3-(1H-imidazol-1-yl)propyl)piperidin-4-yl)amino)methyl)-1-(4-phenyl-3,4-dihydro-2H-benzo[b][1,4]oxazin-6-yl)thieno[2,3-b]pyrazin-2(1H)-one]	1.2 (≈ 0.87 µg/mL)	1.2 (≈ 0.87 µg/mL)	151	246	3.9	3.9
CC(O)c1c(C(=O)NC2CCN(CC(O)(Cn3cncn3)c3ccc(F)cc3F)CC2)sc2nc(N)c(=O)n(-c3ccc4ccn(-c5ccccc5)c4c3)c12 (stereo not drawn) [Compound I-56, 3-amino-N-(1-(2-(2,4-difluorophenyl)-2-hydroxy-3-(1H-1,2,4-triazol-1-yl)propyl)piperidin-4-yl)-7-(1-hydroxyethyl)-2-oxo-1-(1-phenyl-1H-indol-6-yl)-1,2-dihydrothieno[2,3-b]pyrazine-6-carboxamide]	3 (≈ 2.3 µg/mL)	3 (≈ 2.3 µg/mL)	64.6	229	–	>10
Nc1nc2sc(CNC3CCN(CC[C@@](O)(Cn4cncn4)c4ccc(F)cc4F)CC3)cc2n(-c2ccc3c(c2)N(c2ccccc2)CCO3)c1=O [Compound I-133, (S)-3-amino-6-(((1-(3-(2,4-difluorophenyl)-3-hydroxy-4-(1H-1,2,4-triazol-1-yl)butyl)piperidin-4-yl)amino)methyl)-1-(4-phenyl-3,4-dihydro-2H-benzo[b][1,4]oxazin-6-yl)thieno[2,3-b]pyrazin-2(1H)-one]	2.13 (≈ 1.58 µg/mL)	2.13 (≈ 1.58 µg/mL)	300	620	–	16.8
Nc1nc2sc(C(=O)NC3CCN(CC(O)(Cn4cncn4)c4ccc(F)cc4F)CC3)cc2n(-c2ccc3c(c2)N(c2ccccc2)CCO3)c1=O (stereo not drawn) [Compound I-4, 3-amino-N-(1-(2-(2,4-difluorophenyl)-2-hydroxy-3-(1H-1,2,4-triazol-1-yl)propyl)piperidin-4-yl)-2-oxo-1-(4-phenyl-3,4-dihydro-2H-benzo[b][1,4]oxazin-6-yl)-1,2-dihydrothieno[2,3-b]pyrazine-6-carboxamide]	0.75 (≈ 0.555 µg/mL)	0.75 (≈ 0.555 µg/mL)	28	113	>10	>10
COC(=O)c1c(C(=O)NC2CCN(CC(O)(Cn3cncn3)c3ccc(F)cc3F)CC2)sc2nc(N)c(=O)n(-c3ccc4c(c3)N(c3ccccc3)CCO4)c12 (stereo not drawn) [Compound I-55, methyl 3-amino-6-((1-(2-(2,4-difluorophenyl)-2-hydroxy-3-(1H-1,2,4-triazol-1-yl)propyl)piperidin-4-yl)carbamoyl)-2-oxo-1-(4-phenyl-3,4-dihydro-2H-benzo[b][1,4]oxazin-6-yl)-1,2-dihydrothieno[2,3-b]pyrazine-7-carboxylate]	9 (≈ 7.18 µg/mL)	9 (≈ 7.18 µg/mL)	318	314	–	>10

Source: patent US20240424113A1, “CONJUGATES COMPRISING ANTIFUNGALS AND HEAT SHOCK PROTEIN 90 (HSP90) INHIBITORS AND METHODS OF USE THEREOF” (Bright Angel Therapeutics Inc., priority 2021, published 2024)
